Assay results: US20130053358A1, “TRANSDERMALLY ABSORBABLE DONEPEZIL-CONTAINING PREPARATION” (HISAMITSU PHARMACEUTICAL CO., INC., priority 2010, published 2013)
Structures can show the parent of a compound that is named as a salt.

System: human normal epidermal cells
Test: Production of skin irritation mediators in human three-dimensional epidermal culture model (LabCyte EPI-MODEL), ELISA
Assay type: cell-based
Description: There was used a human three-dimensional epidermal culture model in which human normal epidermal cells were multilayer-cultured (LabCyte EPI-MODEL, Japan Tissue Engineering Co., Ltd.). LabCyte is a cultured skin cultured in a transwell. For the experiment, LabCyte was used with the transwell.
A cholesterol (Wako Pure Chemical Industries, Ltd.) was used as a test article. Donepezil hydrochloride was used as the drug. Olive oil (Wako Pure Chemical Industries, Ltd.) was used as a vehicle.
Tests were conducted by the following group composition. • Drug Alone Group: A group with addition of 4×10^−4 M of donepezil hydrochloride alone dispersed in a vehicle, as a test solution. • Cholesterol Addition Group: A group with addition of 4×10^−4 M of donepezil hydrochloride and 1% by mass of cholesterol which were dispersed in a vehicle, as a test solution.
The test solutions of each group were added to the cells, the culture after being incubated for 48 hours were collected, and the production amounts of skin irritation mediators were measured. PGE2, IL-1α, IL-6 and IL-8 were measured as the skin irritation mediators. The skin irritation mediators were measured by using a commercially available ELISA kit (R&D Systems, Inc.). The relative production amount of the skin irritation mediator in the Cholesterol Addition Group was calculated as below, when the production amount of the skin irritation mediators in Drug Alone Group was set to 100.
Relative production amount=(production amount of the mediator in Cholesterol Addition Group)/(production amount of the mediator in Drug Alone Group)×100

[1] = 4×10^−4 M donepezil hydrochloride + 1% by mass cholesterol in olive oil, 48 hours incubation

Row | Compound | relative production amount of skin irritation mediator IL-1α (drug alone group set to 100) [1] | relative production amount of skin irritation mediator IL-6 (drug alone group set to 100) [1] | relative production amount of skin irritation mediator IL-8 (drug alone group set to 100) [1] | relative production amount of skin irritation mediator PGE2 (drug alone group set to 100) [1] | effect on production amounts of skin irritation mediators by donepezil hydrochloride (1% by mass cholesterol added to 4×10^−4 M donepezil hydrochloride, 48 hours)
1 | COc1cc2c(cc1OC)C(=O)C(CC1CCN(Cc3ccccc3)CC1)C2 (centres unmarked) [Donepezil hydrochloride, 2-[(1-benzyl-4-piperidinyl)methyl]-5,6-dimethoxyindane-1-on] | 0 | 85 | 59 | 33 | 
2 | CC(C)CCC[C@@H](C)[C@H]1CC[C@H]2[C@@H]3CC=C4C[C@@H](O)CC[C@]4(C)[C@H]3CC[C@]12C [cholesterol, (3β)-cholest-5-en-3-olcholest-5-en-3β-ol] |  |  |  |  | effects of decreasing the production amounts of skin irritation mediators
